Assay in all cases: kinome screen (33PanQinase)
What all share (format): biochemical

One experiment deals with T1, RPS6KA6 (Homo sapiens, UniProt Q9UK32).
T1 construct: purchased Reaction Biology Europe GmbH (formerly ProQinase)
The method, then: (§1) The Kinome Screening was performed by Reaction Biology Europe GmbH (http://reactionbiology.com; Freiburg i. Br., Germany).

In another experiment the target is T2, AKT2 (Homo sapiens, UniProt P31751).
T2 construct: purchased Reaction Biology Europe GmbH (formerly ProQinase)
T2 sequence (P31751 whole entry): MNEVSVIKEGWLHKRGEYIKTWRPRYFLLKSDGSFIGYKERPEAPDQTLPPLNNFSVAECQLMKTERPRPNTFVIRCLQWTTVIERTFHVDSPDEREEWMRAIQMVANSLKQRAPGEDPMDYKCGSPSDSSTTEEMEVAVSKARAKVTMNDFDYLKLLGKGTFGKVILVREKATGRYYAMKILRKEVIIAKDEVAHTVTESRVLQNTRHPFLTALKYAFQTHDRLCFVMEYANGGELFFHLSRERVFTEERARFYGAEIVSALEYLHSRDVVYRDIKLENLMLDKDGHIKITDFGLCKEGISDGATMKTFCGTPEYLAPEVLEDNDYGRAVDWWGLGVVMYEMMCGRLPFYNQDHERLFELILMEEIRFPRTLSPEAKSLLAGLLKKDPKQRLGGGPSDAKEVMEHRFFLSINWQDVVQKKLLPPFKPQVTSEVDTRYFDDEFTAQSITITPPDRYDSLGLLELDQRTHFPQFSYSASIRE
The protocol:
as §1

The next experiment concerns the target T3, MUSK (Homo sapiens, UniProt O15146).
T3 construct: purchased Reaction Biology Europe GmbH (formerly ProQinase)
T3 sequence (O15146 24-869): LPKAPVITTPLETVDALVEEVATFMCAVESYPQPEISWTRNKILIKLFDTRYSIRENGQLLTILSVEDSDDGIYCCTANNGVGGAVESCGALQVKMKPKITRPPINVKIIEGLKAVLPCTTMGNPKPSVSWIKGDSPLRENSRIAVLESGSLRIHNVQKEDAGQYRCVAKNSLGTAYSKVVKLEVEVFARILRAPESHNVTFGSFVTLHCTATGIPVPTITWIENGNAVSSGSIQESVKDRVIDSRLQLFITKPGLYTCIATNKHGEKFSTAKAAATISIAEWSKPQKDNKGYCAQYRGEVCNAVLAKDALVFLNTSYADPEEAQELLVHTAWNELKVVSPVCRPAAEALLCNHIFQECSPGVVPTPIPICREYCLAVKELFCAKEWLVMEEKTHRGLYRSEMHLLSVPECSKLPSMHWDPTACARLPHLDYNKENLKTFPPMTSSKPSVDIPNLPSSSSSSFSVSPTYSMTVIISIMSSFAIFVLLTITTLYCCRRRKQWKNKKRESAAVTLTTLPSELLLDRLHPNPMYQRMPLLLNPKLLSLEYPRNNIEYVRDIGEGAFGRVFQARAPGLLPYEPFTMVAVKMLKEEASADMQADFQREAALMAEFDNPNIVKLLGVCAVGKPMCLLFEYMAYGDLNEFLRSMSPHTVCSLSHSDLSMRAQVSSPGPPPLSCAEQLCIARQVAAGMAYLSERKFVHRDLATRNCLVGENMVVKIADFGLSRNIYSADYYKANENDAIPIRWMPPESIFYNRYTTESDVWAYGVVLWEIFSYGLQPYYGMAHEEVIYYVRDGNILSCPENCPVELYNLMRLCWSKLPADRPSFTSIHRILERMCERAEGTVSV
The protocol:
as §1

In a further experiment the target is T4, ZAK (Homo sapiens, UniProt Q9NYL2).
T4 construct: purchased Reaction Biology Europe GmbH (formerly ProQinase)
T4 sequence (Q9NYL2 whole entry): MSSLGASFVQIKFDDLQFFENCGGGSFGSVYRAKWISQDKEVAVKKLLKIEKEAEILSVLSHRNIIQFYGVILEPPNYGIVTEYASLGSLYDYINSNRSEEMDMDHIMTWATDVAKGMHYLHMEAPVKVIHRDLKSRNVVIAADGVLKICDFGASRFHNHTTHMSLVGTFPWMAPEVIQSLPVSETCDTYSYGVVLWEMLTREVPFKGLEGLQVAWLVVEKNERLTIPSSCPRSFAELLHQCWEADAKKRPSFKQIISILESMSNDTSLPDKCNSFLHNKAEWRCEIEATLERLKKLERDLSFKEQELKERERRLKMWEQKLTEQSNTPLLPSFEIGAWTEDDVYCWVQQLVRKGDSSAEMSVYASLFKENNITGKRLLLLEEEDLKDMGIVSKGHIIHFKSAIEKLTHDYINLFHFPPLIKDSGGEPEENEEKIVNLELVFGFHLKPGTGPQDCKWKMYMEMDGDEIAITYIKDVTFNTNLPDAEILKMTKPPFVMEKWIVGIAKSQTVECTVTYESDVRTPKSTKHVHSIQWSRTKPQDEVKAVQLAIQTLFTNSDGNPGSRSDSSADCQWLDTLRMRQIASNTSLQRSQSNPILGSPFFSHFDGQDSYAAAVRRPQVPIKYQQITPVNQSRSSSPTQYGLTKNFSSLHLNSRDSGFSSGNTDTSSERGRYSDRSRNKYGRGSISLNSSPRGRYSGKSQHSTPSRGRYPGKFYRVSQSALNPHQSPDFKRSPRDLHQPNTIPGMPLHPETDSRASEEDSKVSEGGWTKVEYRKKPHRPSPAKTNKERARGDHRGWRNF
The method, then: as §1

The target of the next experiment is T5, SGK2 (Homo sapiens, UniProt Q9HBY8).
T5 construct: purchased Reaction Biology Europe GmbH (formerly ProQinase)
T5 sequence (Q9HBY8 1-367): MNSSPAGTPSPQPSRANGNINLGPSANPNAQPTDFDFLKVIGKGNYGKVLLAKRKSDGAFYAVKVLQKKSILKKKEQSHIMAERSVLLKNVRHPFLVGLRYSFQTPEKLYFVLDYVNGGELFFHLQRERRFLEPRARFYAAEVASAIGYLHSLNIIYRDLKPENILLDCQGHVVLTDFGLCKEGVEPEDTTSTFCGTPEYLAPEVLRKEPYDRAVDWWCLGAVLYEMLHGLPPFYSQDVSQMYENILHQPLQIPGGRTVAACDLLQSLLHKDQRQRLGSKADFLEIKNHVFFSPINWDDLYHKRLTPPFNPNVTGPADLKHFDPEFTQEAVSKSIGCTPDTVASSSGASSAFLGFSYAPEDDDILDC
The method, then: as §1

For a further experiment, the target named is T6, DAPK3 (Homo sapiens, UniProt O43293).
T6 construct: purchased Reaction Biology Europe GmbH (formerly ProQinase)
T6 sequence (O43293 whole entry): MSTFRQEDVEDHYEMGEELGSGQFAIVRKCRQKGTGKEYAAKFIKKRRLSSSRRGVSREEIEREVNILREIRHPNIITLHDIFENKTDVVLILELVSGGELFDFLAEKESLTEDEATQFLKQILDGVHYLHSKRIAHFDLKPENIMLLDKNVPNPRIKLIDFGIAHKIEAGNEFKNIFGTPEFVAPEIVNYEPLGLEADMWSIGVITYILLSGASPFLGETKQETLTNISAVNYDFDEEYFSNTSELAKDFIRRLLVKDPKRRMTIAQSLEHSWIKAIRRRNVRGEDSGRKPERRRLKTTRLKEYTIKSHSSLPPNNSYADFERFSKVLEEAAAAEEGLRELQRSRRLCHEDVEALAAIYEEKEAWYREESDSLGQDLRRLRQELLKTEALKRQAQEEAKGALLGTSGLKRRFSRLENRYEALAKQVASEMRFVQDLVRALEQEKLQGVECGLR
The protocol: as §1

The next experiment addresses T7, PKCε (Homo sapiens, UniProt Q02156).
T7 construct: purchased Reaction Biology Europe GmbH (formerly ProQinase)
T7 sequence (Q02156 1-737): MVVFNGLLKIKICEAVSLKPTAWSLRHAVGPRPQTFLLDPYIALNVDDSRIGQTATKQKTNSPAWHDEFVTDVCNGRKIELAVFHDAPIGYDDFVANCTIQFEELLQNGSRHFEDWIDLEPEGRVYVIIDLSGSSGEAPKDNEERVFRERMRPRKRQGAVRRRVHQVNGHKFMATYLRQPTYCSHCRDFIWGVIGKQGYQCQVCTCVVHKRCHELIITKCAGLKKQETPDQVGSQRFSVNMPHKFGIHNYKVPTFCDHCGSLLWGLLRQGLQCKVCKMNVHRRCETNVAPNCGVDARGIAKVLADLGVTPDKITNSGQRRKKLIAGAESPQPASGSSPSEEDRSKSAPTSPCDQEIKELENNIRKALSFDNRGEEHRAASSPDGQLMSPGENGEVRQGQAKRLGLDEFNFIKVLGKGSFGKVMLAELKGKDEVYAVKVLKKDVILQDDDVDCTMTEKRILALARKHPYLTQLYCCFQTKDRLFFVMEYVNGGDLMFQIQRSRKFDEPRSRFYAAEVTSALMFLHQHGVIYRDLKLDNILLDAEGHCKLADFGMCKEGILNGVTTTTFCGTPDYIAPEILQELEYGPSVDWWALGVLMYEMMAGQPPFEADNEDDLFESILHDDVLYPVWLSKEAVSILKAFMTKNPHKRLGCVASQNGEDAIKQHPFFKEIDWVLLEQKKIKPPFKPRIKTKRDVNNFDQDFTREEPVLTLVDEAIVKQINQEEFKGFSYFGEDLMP
The protocol: as §1

The target in the next experiment is T8, CAMK2D (Homo sapiens, UniProt Q13557).
T8 construct: purchased Reaction Biology Europe GmbH (formerly ProQinase)
T8 sequence (Q13557 whole entry): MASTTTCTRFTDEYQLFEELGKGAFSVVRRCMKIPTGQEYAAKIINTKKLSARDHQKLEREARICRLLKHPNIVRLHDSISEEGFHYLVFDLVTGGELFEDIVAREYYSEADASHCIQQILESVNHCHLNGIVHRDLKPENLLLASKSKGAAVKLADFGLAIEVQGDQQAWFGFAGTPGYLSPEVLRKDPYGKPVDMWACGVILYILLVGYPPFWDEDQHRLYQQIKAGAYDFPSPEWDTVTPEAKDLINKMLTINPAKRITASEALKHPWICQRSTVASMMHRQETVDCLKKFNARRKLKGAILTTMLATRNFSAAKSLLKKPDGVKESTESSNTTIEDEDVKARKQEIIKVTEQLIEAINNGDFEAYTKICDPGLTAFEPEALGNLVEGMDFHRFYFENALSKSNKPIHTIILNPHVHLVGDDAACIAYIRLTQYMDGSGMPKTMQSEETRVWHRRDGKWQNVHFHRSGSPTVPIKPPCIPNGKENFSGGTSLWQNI
The protocol:
as §1

T1 sequence (Q9UK32 whole entry): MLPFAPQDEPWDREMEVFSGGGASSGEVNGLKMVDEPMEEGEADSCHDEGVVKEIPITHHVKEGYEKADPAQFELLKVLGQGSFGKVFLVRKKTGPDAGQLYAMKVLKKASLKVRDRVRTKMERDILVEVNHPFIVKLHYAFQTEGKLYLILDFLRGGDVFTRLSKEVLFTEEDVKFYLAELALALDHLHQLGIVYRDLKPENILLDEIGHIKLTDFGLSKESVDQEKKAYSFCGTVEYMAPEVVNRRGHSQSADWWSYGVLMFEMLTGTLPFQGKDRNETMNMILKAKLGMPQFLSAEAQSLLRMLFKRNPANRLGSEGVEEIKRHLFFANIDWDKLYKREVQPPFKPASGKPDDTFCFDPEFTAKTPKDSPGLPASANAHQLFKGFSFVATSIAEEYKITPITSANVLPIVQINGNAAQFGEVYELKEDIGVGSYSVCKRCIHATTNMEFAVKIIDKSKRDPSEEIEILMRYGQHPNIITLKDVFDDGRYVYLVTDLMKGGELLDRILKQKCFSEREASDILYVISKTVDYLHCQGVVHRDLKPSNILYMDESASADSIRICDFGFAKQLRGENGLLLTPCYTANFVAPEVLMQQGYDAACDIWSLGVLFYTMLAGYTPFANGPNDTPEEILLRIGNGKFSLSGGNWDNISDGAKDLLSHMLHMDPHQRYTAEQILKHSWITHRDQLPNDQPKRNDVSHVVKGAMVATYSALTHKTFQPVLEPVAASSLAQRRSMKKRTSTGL

In the case of `COc1ccnc2[nH]cc(-c3cc(N)nc(N)c3)c12` [meriolin 16], the residual kinase activity is on record as 84 % of control on RPS6KA6 (0.03 µM); 48 % of control on RPS6KA6 (0.3 µM); 98 % of control at AKT2 (0.03 µM); 79 % of control at AKT2 (0.3 µM); 88 % of control at MUSK (0.03 µM); 70 % of control at MUSK (0.3 µM). Further, the residual kinase activity is reported as 96 % of control at ZAK (0.03 µM); 83 % of control at ZAK (0.3 µM); 97 % of control at SGK2 (0.03 µM); 74 % of control on SGK2 (0.3 µM); 98 % of control at DAPK3 (0.03 µM); 51 % of control on DAPK3 (0.3 µM). For the same compound, the residual kinase activity on PKCε (0.03 µM) is 25 % of control; on PKCε (0.3 µM), 4 % of control; at CAMK2D (0.03 µM) it was 99 % of control; on CAMK2D (0.3 µM) it was 64 % of control.

`c1ccc(CNc2cc(-c3c[nH]c4ncccc34)ccn2)cc1` [meriolin 36]: the residual kinase activity is on record as 13 % of control at RPS6KA6 (0.3 µM); 3 % of control on RPS6KA6 (3 µM); 102 % of control on AKT2 (0.3 µM); 75 % of control at AKT2 (3 µM); 28 % of control at MUSK (0.3 µM); 5 % of control at MUSK (3 µM). In addition, the residual kinase activity was 57 % of control at ZAK (0.3 µM); 14 % of control at ZAK (3 µM); 88 % of control at SGK2 (0.3 µM); 32 % of control on SGK2 (3 µM); 80 % of control at DAPK3 (0.3 µM); 25 % of control on DAPK3 (3 µM). In addition, the residual kinase activity is reported as 5 % of control on PKCε (0.3 µM), 1 % of control on PKCε (3 µM), 16 % of control at CAMK2D (0.3 µM) and 1 % of control at CAMK2D (3 µM).
